# Entries after “also recorded” stand apart in the source; their conditions may differ.
# Legend:
# [1] = cited from earlier work
# [2] = system: Human breast adenocarcinoma cell line (MCF-7 (HTB-22)); test: 3H-thymidine uptake assay, breast cancer cell line; type: cell-based; conditions: for Average Cpm / Cpm 1 / Cpm 2 / Cpm 3 / dose proportionality of the effect alone, percent inhibition of 3H-uptake (FIG. 4): MCF-7; for Average Cpm / Cpm 1 / Cpm 2 / Cpm 3: 24 hours post treatment; for dose proportionality of the effect alone, percent inhibition of 3H-uptake (FIG. 4): drug alone at lower doses
# Experimental: The cells were passaged onto 24-well plates at a concentration of 50,000 cells/well, in total medium volume of 1 mL (DMEM+10% FBS+0.01 mg/mL insulin+antibiotics). The cells were then allowed to attach and were incubated from 24 hours before treatment. Cells were then treated, in triplicate, with various concentrations of treatment articles. ^3H-thymidine (1 mCi/mL) was diluted to 1 μCi in 5 μL of medium (DMEM+10% FBS+0.01 mg/mL insulin+antibiotics) and then added to each well at 18-hr post treatment. […] Each well of cells was then lysed in 0.5 mL of 0.5N NaOH+0.5% SDS. Lysate was then transferred to scintillation tubes containing 1 mL if scintillation fluid for counting (3 min/sample).
# [3] = system: Human kidney clear cell carcinoma cell line Caki-I (HTB-46); test: 3H-thymidine uptake assay, renal cell carcinoma; type: cell-based; conditions: for Average Cpm / Cpm 1 / Cpm 2 / Cpm 3: Caki-I, 24 hours post treatment; for Average cpm: pilot plating
# Experimental: Pilot plating experiments using Human kidney clear cell carcinoma cell line Caki-I (HTB-46). […] 0.1% DMSO, the test article solvent, in media was the control.
# The cells were passaged onto 24-well plates at a concentration of 30,000 cells/well, in total medium volume of 1 mL (RPMI 1640+10% FBS+antibiotics). The cells were then allowed to attach and were incubated from 24 hours before treatment. Cells were then treated, in triplicate, with various concentrations of treatment articles.
# ^3H-thymidine (1 mCi/mL) was diluted to 1 μCi in 5 μL of medium (RPMI 1640+10%/FBS+antibiotics) and then added to each well at either 18- or 42-hr post treatment, for the 24- and 48-hr time points respectively.
# Cells were then washed three times with 1 ML of DPBS at 24- or 48-hr post treatment to remove unincorporated ^3H-thymidine. Each well of cells was then lysed in 0.5 mL of 0.5N NaOH+0.5% SDS. Lysate was then transferred to scintillation tubes containing 1 mL if scintillation fluid for counting (3 min/sample).
# [4] = system: plaques, tangles, and cognitive defects; conditions: mice; given before the establishment of plaques and tangles in the brain; cited from earlier work
smiles,measurement,setting,value
"[H]/N=C(/N=C(N)N)N(C)C [Metformin, 1,1-Dimethylbiguanide]",standard dose therapeutic serum Cmax,[1]; standard dose,1-2 microgram/mL
same,Average Cpm,[2]; dosage 0.05 nM,1144 cpm
same,Cpm 1,[2]; dosage 0.05 nM,1267 cpm
same,Cpm 2,[2]; dosage 0.05 nM,1123 cpm
same,Cpm 3,[2]; dosage 0.05 nM,1041 cpm
same,Average Cpm,[2]; dosage 0.1 nM,2092 cpm
same,Cpm 1,[2]; dosage 0.1 nM,2238 cpm
same,Cpm 2,[2]; dosage 0.1 nM,2595 cpm
same,Cpm 3,[2]; dosage 0.1 nM,1444 cpm
same,Average Cpm,[2]; dosage 0.5 nM,1084 cpm
same,Cpm 1,[2]; dosage 0.5 nM,1283 cpm
same,Cpm 2,[2]; dosage 0.5 nM,1048 cpm
same,Cpm 3,[2]; dosage 0.5 nM,921 cpm
same,"dose proportionality of the effect alone, percent inhibition of 3H-uptake (FIG. 4)",[2],not dose proportional; also recorded: not dose-proportional
"CN(Cc1cnc2nc(N)nc(N)c2n1)c1ccc(C(=O)N[C@@H](CCC(=O)O)C(=O)O)cc1 [Methotrexate, N-[4-[[(2,4-diamino-6-pteridinyl)methyl]methylamino]benzoyl]L-glutamic acid]",Average Cpm,[3]; dosage 100 nM,11414 cpm
same,Cpm 1,[3]; dosage 100 nM,10636 cpm
same,Cpm 2,[3]; dosage 100 nM,12192 cpm
same,Cpm 3,[3]; dosage 100 nM,4932 cpm
same,Average cpm,"[3]; 2.5 nm, 24-hr post treatment",30659 cpm
same,Average cpm,"[3]; 2.5 nm, 48-hr post treatment",4811 cpm
same,Average cpm,"[3]; 5 nm, 24-hr post treatment",31148 cpm
same,Average cpm,"[3]; 5 nm, 48-hr post treatment",16772 cpm
same,Average cpm,"[3]; 10 nm, 24-hr post treatment",27266 cpm
same,Average cpm,"[3]; 10 nm, 48-hr post treatment",20251 cpm
same,Average cpm,"[3]; 20 nm, 24-hr post treatment",26144 cpm
same,Average cpm,"[3]; 20 nm, 48-hr post treatment",11273 cpm
CO[C@H]1C[C@@H]2CC[C@@H](C)[C@@](O)(O2)C(=O)C(=O)N2CCCC[C@H]2C(=O)O[C@H]([C@H](C)C[C@@H]2CC[C@@H](O)[C@H](OC)C2)CC(=O)[C@H](C)/C=C(\C)[C@@H](O)[C@@H](OC)C(=O)[C@H](C)C[C@H](C)/C=C/C=C/C=C/1C [Rapamycin],standard therapeutic serum trough levels,[1]; considered clinically relevant for current uses,5 to 20 ng/mL
same,"effect on plaques, tangles, and cognitive defects",[4],"significantly reduce plaques, tangles, and cognitive defects"
same,inhibition at 0.0005 µM,"[2]; Homo sapiens, MCF7, read-out: inhibitory effect (percent inhibition of 3H-uptake), rapamycin alone at 0.5 nM",25%
same,inhibition at 0.001 µM,"[2]; Homo sapiens, MCF7, read-out: inhibitory effect (percent inhibition of 3H-uptake), rapamycin alone at 1.0 nM",32%
same,Average Cpm,[2]; dosage 0.1 nM,1181 cpm
same,Cpm 1,[2]; dosage 0.1 nM,1041 cpm
same,Cpm 2,[2]; dosage 0.1 nM,1516 cpm
same,Cpm 3,[2]; dosage 0.1 nM,986 cpm
same,Average Cpm,[2]; dosage 0.5 nM,2543 cpm
same,Cpm 1,[2]; dosage 0.5 nM,2537 cpm
same,Cpm 2,[2]; dosage 0.5 nM,2524 cpm
same,Cpm 3,[2]; dosage 0.5 nM,2567 cpm
same,Average Cpm,[2]; dosage 1 nM,2294 cpm
same,Cpm 1,[2]; dosage 1 nM,3114 cpm
same,Cpm 2,[2]; dosage 1 nM,1220 cpm
same,Cpm 3,[2]; dosage 1 nM,2548 cpm
same,"dose proportionality of the effect alone, percent inhibition of 3H-uptake (FIG. 4)",[2],not dose proportional; also recorded: not dose-proportional
same,Average Cpm,[3]; dosage 1 nM,10651 cpm
same,Cpm 1,[3]; dosage 1 nM,10730 cpm
same,Cpm 2,[3]; dosage 1 nM,9692 cpm
same,Cpm 3,[3]; dosage 1 nM,11531 cpm
same,Average Cpm,[3]; dosage 5 nM,8758 cpm
same,Cpm 1,[3]; dosage 5 nM,8771 cpm
same,Cpm 2,[3]; dosage 5 nM,7473 cpm
same,Cpm 3,[3]; dosage 5 nM,10030 cpm
same,Average Cpm,[3]; dosage 10 nM,9111 cpm
same,Cpm 1,[3]; dosage 10 nM,9861 cpm
same,Cpm 2,[3]; dosage 10 nM,8987 cpm
same,Cpm 3,[3]; dosage 10 nM,8486 cpm
same,Average cpm,"[3]; 5 nm, 24-hr post treatment",14805 cpm
same,Average cpm,"[3]; 5 nm, 48-hr post treatment",8584 cpm
same,Average cpm,"[3]; 10 nm, 24-hr post treatment",12611 cpm
same,Average cpm,"[3]; 10 nm, 48-hr post treatment",7463 cpm
same,Average cpm,"[3]; 20 nm, 24-hr post treatment",12044 cpm
same,Average cpm,"[3]; 20 nm, 48-hr post treatment",6349 cpm
